The results in this text go back to PubChem BioAssay AID720727 (Broad Institute, 2013).

In this test the test system is Huh7 miR-21 level, qRT-PCR, 48 h. Kind of test: effect on endogenous miR-21 levels, dose response, selectivity assay for miR-122 activator project, cell-based, Huh7, qRT-PCR, dry powder (AID 720727). In general terms: Real-time PCR tracks product formation cycle by cycle.

Calls of active or inactive are those of the source.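 How the source made its calls: active means compound whose rising-signal curve crosses activity 40 at or below its top valid dose; inconclusive means flat curve holding activity 30 to 70, or poor fit; inactive means the rest.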 Where only a bound is given, the exact number is not on record here.

Turning to `COCC(=O)N(C)C[C@H]1Oc2cc(-c3ccccc3F)ccc2S(=O)(=O)N([C@H](C)CO)C[C@H]1C`, the AC40 is 18.8 µM.
For `Cc1cc(C(C)(C)C)cc(S(=O)(=O)NCCc2ccncc2)c1C`, the AC40 is 33.5 µM.
As for `O=C(CN=C1NS(=O)(=O)c2ccccc21)Nc1ccccc1N1CCCCCC1`, the AC40 is 28.4 µM.
Next, `CN1C(=O)c2cc(NC(=O)c3cccc(F)c3)ccc2OC[C@H]2O[C@@H](CC(=O)O)CC[C@@H]21`: 32.5 µM.
Then `COCC(=O)N(C)C[C@@H]1Oc2ncc(-c3ccc(C#N)cc3)cc2C(=O)N([C@@H](C)CO)C[C@@H]1C`, with 18.4 µM; and `CN1C(=O)c2cc(NC(=O)c3cccc(F)c3)ccc2OC[C@H]2O[C@@H](CC(=O)O)CC[C@H]21`, with 11.7 µM.
Then `C[C@H]1CN([C@@H](C)CO)C(=O)c2cc(-c3ccc(C#N)cc3)cnc2O[C@H]1CN(C)C(=O)c1ccccc1`, with 30.6 µM; and `CN(C)CCCOc1nn(Cc2ccccc2)c2ccccc12`, with 11.4 µM; and `CCn1cc(C(=O)O)c(=O)c2cc(F)c(N3CCNCC3)nc21`, with > 35 µM (inactive).
Regarding `CCOC(=O)N1CCC(NC(=O)c2ccc3c(c2)sc2nc(-c4ccccc4)cn23)CC1`, the AC40 is 17.5 µM.
Next, `CNC[C@@H]1Oc2cc(C#CC3CCCCC3)ccc2S(=O)(=O)N([C@@H](C)CO)C[C@@H]1C`: 29.2 µM; `Cc1cccc(NC(=O)Nc2ccc3c(c2)C(=O)N(C)[C@@H]2CC[C@H](CC(=O)NCc4ccccc4Cl)O[C@H]2CO3)c1`: 17.9 µM; `CN(CC(=O)Nc1cccc(Cl)c1)S(=O)(=O)c1ccc2c(c1)n(C)c(=O)c(=O)n2C`: 29.8 µM.
Next, `COCC(=O)N(C)C[C@H]1Oc2cc(C#Cc3cccnc3)ccc2S(=O)(=O)N([C@H](C)CO)C[C@H]1C`: 4.22 µM; `COc1ccc(S(=O)(=O)N(C)C[C@@H]2Oc3ncc(/C=C/c4ccccc4)cc3C(=O)N([C@@H](C)CO)C[C@@H]2C)cc1`: 14.9 µM.
